# Reference: PMC10529594, “Strasseriolides display in vitro and in vivo activity against trypanosomal parasites and cause morphological and size defects in Trypanosoma cruzi” (PLOS Neglected Tropical Diseases, 2023)
# Several values for one entry are separate records, joined by “and”; a condition that tells them apart may be missing. Identical values can stand only once. Like-named read-outs stand apart in the source and are kept apart here.
# How the values were obtained:
# [1] = system: T. cruzi Tulahuen C4 epimastigotes; assay: T. cruzi epimastigotes growth inhibition assay (resazurin); assay type: cell-based, Trypanosoma cruzi; settings: for EC50: Tulahuen C4, 72 h, resazurin
# Method: (§1) The Trypanosoma cruzi Tulahuen strain used is a genetically modified strain that expresses the Escherichia coli β-galactosidase gene, lacZ [31]. It was kindly supplied by Marcel Kaiser (Swiss Tropical and Public Health Institute). The T. cruzi Tulahuen C4 strain was cultured in RPMI-1640 supplemented with 10% inactivated FBS (iFBS), 1.7 mM L-glutamine, 100 U/mL penicillin, and […] at 37°C and 5% CO2. L6 rat skeletal muscle cells were purchased from ATCC (reference CRL-1458) and used as host cells for infection with transgenic T. cruzi trypomastigotes. Epimastigotes were obtained by differentiation in LIT medium with 10% iFBS at 28°C from trypomastigote forms.
# A resazurin-based assay was set up in 96-well microplates containing 10 μL of test compound at concentrations ranging from 0.39 to 200 μM and log phase parasites seeded at 2 × 10^5 cells per well in a final volume of 100 μL. Maximum DMSO percentage in the well was 0.2%. Positive and negative growth controls were included. Following 72 hour incubation at 28°C with orbital shaking, 10 μL of resazurin solution were added to each well and the plates were returned to the incubator for 4 hours. Resazurin reduction was correlated to cell viability by fluorescence measurement with excitation and emission wavelength bands centered at 550 and 590 nm, respectively, in a Tecan Infinite 200 microplate reader.
# T. cruzi epimastigotes = assay: FACS analysis of T. cruzi epimastigotes (cell cycle, size and complexity); assay type: cell-based, Trypanosoma cruzi; settings: 72 h
# Method: FACS analysis was used to study cell cycle progression and cellular parameters such as size and complexity. 5 × 10^6 T. cruzi epimastigotes were harvested by centrifugation at 1,000×g and 4°C after 72 hours of incubation in a 6-well plate in the presence and in absence of test compounds. Pellets of cells were washed with 5 mL of PBS and fixed in a solution of 70% ice-cold ethanol/PBS at -20°C overnight. Cells were then collected by centrifugation, washed with PBS and stained with 40 μg/mL of propidium iodide in PBS containing 10 μg/mL of RNase A at 37°C for 30 minutes. Fluorescence was monitored with a Becton Dickinson FACSCalibur using BD CellQuest Pro version 4.0.2 software with a total of 10,000 events acquired for each sample. The different cell populations as well as mean cellular parameters were determined by FlowJo software.
# [2] = system: T. cruzi Tulahuen C4 intracellular amastigotes; assay: β-D-galactosidase transgenic T. cruzi assay (intracellular amastigotes in L6 cells, CPRG); assay type: cell-based; settings: Trypanosoma cruzi; for inhibition at 0.00152588 µM / inhibition at 0.00305176 µM / inhibition at 0.00610352 µM / inhibition at 0.012207 µM / inhibition at 0.0244141 µM / inhibition at 0.0488281 µM / inhibition at 0.0976562 µM / inhibition at 0.195312 µM / inhibition at 0.390625 µM / inhibition at 0.78125 µM / inhibition at 1.5625 µM / inhibition at 3.125 µM / inhibition at 6.25 µM / inhibition at 12.5 µM / inhibition at 25 µM / inhibition at 50 µM: TULAHUEN, L6, T. cruzi amastigotes, 96-hour treatment, read-out: Growth inhibition (%) Average; for EC50: Tulahuen C4 in L6 cells, 96 h, CPRG
# Method: as §1
# A Thermo Scientific Multidrop Combi dispenser was used to dispense 55 μL of T. cruzi infected L6 cells (2 ×10^3 cells per well) into 384-well Corning assay plates already containing 5 μL of each compound at concentrations ranging from 0.0015 to 50 μM and controls. The plates were incubated at 37°C for 96 hours upon which 15 μL of lysis buffer (0.5 mM CPRG, 0.5% NP40) were added to each well and further incubated for 4 hours in the dark. Absorbance at 585 nm was measured in a Perkin Elmer Envision plate reader.
# [3] = system: T. cruzi Tulahuen C4 trypomastigotes; assay: T. cruzi trypomastigote viability assay (resazurin fluorescence); assay type: cell-based, Trypanosoma cruzi; settings: Trypanosoma cruzi, TULAHUEN, 72 h, Tulahuen C4, 72 hours at 37°C
# Method: Tulahuen T. cruzi trypomastigotes were recovered 6 days post infection from the supernatant of harvested infected L6 cells cultures after 3 hours at 37°C. 90 μL of parasite culture at a density of 5 × 10^6 cells in RPMI 1640 media were dispensed into 96 Nunc flat bottom assay plates containing 10 μL of each compound.
# In the fluorescence assay, plates were incubated for 24 and 48 hours after which 10 μL of the resazurin solution were added to each well. Plates were further incubated for 24 hours and fluorescence was measured at 550/590 nm using a Tecan Infinite 200 microplate reader. […] Final maximal DMSO percentage in the well was 0.1% and compound concentrations ranged from 0.2 to 100 μM.
# [4] = system: L. donovani MHOM/ET/67/HU3 transgenic intracellular amastigotes; assay: L. donovani intracellular amastigote assay (luciferase, THP-1 macrophages); assay type: cell-based; settings: Leishmania donovani, THP-1, 72 h, read-out: EC50 L. donovani
# Method: Leishmania donovani MHOM/ET/67/HU3 cells with the luciferase gene integrated into the parasite genome was obtained as described. Parasites were grown at 28°C in RPMI 1640-modified medium supplemented with 20% heat-inactivated fetal bovine serum (iFBS, Invitrogen) with […] of hygromycin B.
# THP-1 cells were differentiated into macrophages with 20 ng/mL of PMA in a 96-well plate at 3 × 10^4 cells per well for 48 hours followed by 24 hours of culture in fresh medium. Cells were then infected with transgenic stationary L. donovani MHOM/ET/67/HU3 promastigotes expressing the luciferase gene at a multiplicity of infection (MOI) of 10. A volume of 100 μL of culture media containing the test compounds was added to each well and the plates were incubated at 37°C for 72 hours. Luminescence was measured using the Promega kit luciferase assay system.
# L6 rat myoblast cells = assay: Cytotoxicity evaluation in L6 cells (resazurin); assay type: cell-based; settings: for EC50: Rattus norvegicus, Myoblast, 72 h, read-out: EC50 L6
# Method: One hundred microliters of supplemented RPMI 1640 medium containing the compounds and controls were added to L6 rat myoblast cells previously seeded (4,000 cells per well) in a 96-well microplate. After 72 hours at 37°C the viable cell number was determined by resazurin reduction. 20 μL of resazurin at 0.11 mg/mL in PBS 1X were added to each well and incubated in the dark for 2 hours at 37°C. Cell viability was estimated by measuring the final fluorescence at 570–590 nm in a Tecan Infinite F200 plate reader.
# [5] = Trypanosoma cruzi, TULAHUEN, 72 h
smiles,measurement,setting,value
"O=C(Cn1ccnc1[N+](=O)[O-])NCc1ccccc1 [Benznidazole, benznidazole]","EC30, epimastigotes","[1]; 72 h, from dose-response curve",7.5 µM
same,"EC70, epimastigotes","[1]; 72 h, from dose-response curve",22.5 µM
same,EC90,[1]; [5],96 µM
same,EC50,[1]; [5],13 µM
same,"Foward Scatter (FSC) - Geometric Mean, single experiment",T. cruzi epimastigotes; EC30,93.4 and 92.7
same,"Foward Scatter (FSC) - Geometric Mean, Average","T. cruzi epimastigotes; EC30, control 96.65",93.05
same,"Foward Scatter (FSC) - Geometric Mean, single experiment",T. cruzi epimastigotes; EC70,96.7 and 91.2
same,"Foward Scatter (FSC) - Geometric Mean, Average","T. cruzi epimastigotes; EC70, control 96.65",93.95
same,"Foward Scatter (FSC) - Geometric Mean, single experiment",T. cruzi epimastigotes; EC90,75.3 and 74.1
same,"Foward Scatter (FSC) - Geometric Mean, Average","T. cruzi epimastigotes; EC90, control 96.65",74.7
same,inhibition at 0.00152588 µM,[2],5.83%
same,inhibition at 0.00305176 µM,[2],3.46%
same,inhibition at 0.00610352 µM,[2],5.29%
same,inhibition at 0.012207 µM,[2],6.58%
same,inhibition at 0.0244141 µM,[2],1.91%
same,inhibition at 0.0488281 µM,[2],12.4%
same,inhibition at 0.0976562 µM,[2],10.6%
same,inhibition at 0.195312 µM,[2],16.3%
same,inhibition at 0.390625 µM,[2],10.8%
same,inhibition at 0.78125 µM,[2],34.7%
same,inhibition at 1.5625 µM,[2],74%
same,inhibition at 3.125 µM,[2],104%
same,inhibition at 6.25 µM,[2],101%
same,inhibition at 12.5 µM,[2],103%
same,inhibition at 25 µM,[2],106%
same,inhibition at 50 µM,[2],105%
same,EC50,[2],1 µM
same,EC50,[3],3.93 µM
"C/C1=C\[C@H](C)CC[C@@H](O)/C(C)=C/[C@H](C)C[C@@H](C)CC[C@@H]([C@@H](C)C(=O)O)OC(=O)[C@@H](C)C1 [Strasseriolide B, strasseriolide B]",EC50,[1]; [5],< 0.4 µM
same,EC50,[1],< 0.39 µM
same,EC50,[4],0.032 µM
same,Selectivity index T. cruzi Tulahuen C4 versus L6 cells,L6 rat myoblast cells,1
same,EC50,L6 rat myoblast cells,0.3 µM
same,inhibition at 0.00152588 µM,[2],4.52%
same,inhibition at 0.00305176 µM,[2],4.82%
same,inhibition at 0.00610352 µM,[2],6.25%
same,inhibition at 0.012207 µM,[2],11.4%
same,inhibition at 0.0244141 µM,[2],8.7%
same,inhibition at 0.0488281 µM,[2],6.79%
same,inhibition at 0.0976562 µM,[2],10.8%
same,inhibition at 0.195312 µM,[2],52.7%
same,inhibition at 0.390625 µM,[2],98.7%
same,inhibition at 0.78125 µM,[2],112%
same,inhibition at 1.5625 µM,[2],113%
same,inhibition at 3.125 µM,[2],113%
same,inhibition at 6.25 µM,[2],113%
same,inhibition at 12.5 µM,[2],113%
same,inhibition at 25 µM,[2],115%
same,inhibition at 50 µM,[2],117%
same,EC50,[2],0.21 µM
same,EC50,[3],< 0.2 µM
"C/C1=C\[C@H](C)CCC(=O)/C(C)=C/[C@H](C)C[C@@H](C)CC[C@@H]([C@@H](C)C(=O)O)OC(=O)[C@@H](C)C1 [Strasseriolide A, strasseriolide A]","cell growth reduction, epimastigotes","[1]; 72-hour exposure, 50 μM",less than 50%
same,EC50,[1]; [5],> 50 µM
same,EC50,[4],> 15 µM
same,Selectivity index T. cruzi Tulahuen C4 versus L6 cells,L6 rat myoblast cells,> 1
same,EC50,L6 rat myoblast cells; resazurin,> 50 µM
same,inhibition at 0.00152588 µM,[2],11.7%
same,inhibition at 0.00305176 µM,[2],9.68%
same,inhibition at 0.00610352 µM,[2],6.95%
same,inhibition at 0.012207 µM,[2],5.87%
same,inhibition at 0.0244141 µM,[2],3.26%
same,inhibition at 0.0488281 µM,[2],6.89%
same,inhibition at 0.0976562 µM,[2],2.91%
same,inhibition at 0.195312 µM,[2],12.5%
same,inhibition at 0.390625 µM,[2],4.42%
same,inhibition at 0.78125 µM,[2],3.14%
same,inhibition at 1.5625 µM,[2],3.55%
same,inhibition at 3.125 µM,[2],3.27%
same,inhibition at 6.25 µM,[2],4.63%
same,inhibition at 12.5 µM,[2],11.4%
same,inhibition at 25 µM,[2],39.4%
same,inhibition at 50 µM,[2],86.7%
same,EC50,[2],31 µM
same,EC50,[3],> 25 µM
